Active and inactive are the calls of the source. The calls are words filed in the database; no cut-off is given here.
What was measured:
Colon 26 [1] = assay: Cytotoxicity against mouse Colon 26 cells at 100 uM after 48 hrs by WST-8 assay; assay type: functional, cell-based
Vero = assay: Cytotoxicity against african green monkey Vero cells after 48 hrs by WST-8 assay; assay type: functional, cell-based; conditions: Chlorocebus sabaeus
Spodoptera litura [2] = assay: Insecticidal activity against cutworms at 4 mg/disk by leaf dik assay; assay type: functional, organism-based
Spodoptera litura [3] = assay: Insecticidal activity against cutworms assessed as number of weight reduced larvae at 21 ug, po for a day followed by rearing on normal diet measured on day 7 (reference value: 6.3 no_unit); assay type: functional
Culex pipiens [4] = assay: Insecticidal activity against mosquito larvae at 50 uM; assay type: functional, organism-based
Spodoptera litura [5] = assay: Insecticidal activity against cutworms assessed as number of weight reduced larvae at 21 ug, po for a day followed by rearing on normal diet measured on day 2 (reference value: 10 no_unit); assay type: functional
Colon 26 [6] = assay: Cytotoxicity against mouse Colon 26 cells after 48 hrs by WST-8 assay; assay type: functional, cell-based; conditions: Colon 26, 48 h
Spodoptera litura [7] = assay: Insecticidal activity against cutworms assessed as number of weight reduced larvae at 21 ug, po for a day followed by rearing on normal diet measured on day 4 (reference value: 10 no_unit); assay type: functional
Spodoptera litura [8] = assay: Insecticidal activity against cutworms assessed as number of weight reduced larvae at 21 ug, po for a day followed by rearing on normal diet measured on day 6 (reference value: 6.7 no_unit); assay type: functional
Culex pipiens [9] = assay: Insecticidal activity against mosquito larvae at 1.2 ug/insect administered as injection; assay type: functional, organism-based
HL-60 [10] = assay: Induction of apoptosis in human HL60 cells assessed as activation of caspase 3 at 100 uM after 4 to 6 hrs by immunoblotiing; assay type: functional, cell-based
Spodoptera litura [11] = assay: Insecticidal activity against cutworms assessed as growth inhibition at 21 ug, po for a day followed by rearing on normal diet measured up to 7 days; assay type: functional, organism-based
[12] = Cytotoxicity against human HL60 cells after 48 hrs by WST-8 assay; assay type: functional, cell-based; conditions: HL-60, 48 h
HL-60 [13] = assay: Induction of apoptosis in human HL60 cells assessed as DNA fragmentation at 100 uM after 4 to 6 hrs by electrophoresis; assay type: functional, cell-based
Spodoptera litura [14] = assay: Insecticidal activity against cutworms assessed as number of weight reduced larvae at 21 ug, po for a day followed by rearing on normal diet measured on day 1 (reference value: 10 no_unit); assay type: functional
Spodoptera litura [15] = assay: Insecticidal activity against cutworms assessed as number of weight reduced larvae at 21 ug, po for a day followed by rearing on normal diet measured on day 5 (reference value: 8.7 no_unit); assay type: functional
Spodoptera litura [16] = assay: Insecticidal activity against cutworms assessed as number of weight reduced larvae at 21 ug, po for a day followed by rearing on normal diet measured on day 3 (reference value: 10 no_unit); assay type: functional
[17] = Cytotoxicity against Sf9 cells after 48 hrs by WST-8 assay; assay type: functional, cell-based; conditions: Spodoptera frugiperda, Sf9, 48 h
Musca domestica = assay: Insecticidal activity against adult housefly at 44 ug/insect administered topically; assay type: functional, organism-based

Row | SMILES | Activity (Colon 26 [1]) | IC50 (Vero) [µM] | Activity (Culex pipiens [4]) | IC50 (Colon 26 [6]) [µM] | Activity (Culex pipiens [9]) | IC50 [12] [µM] | IC50 [17] [µM] | Activity (Musca domestica) | further results
1 | CC1(C)C(=O)CC(=O)C(C)(C)C1=O | inactive | – | – | – | – | – | – | – | –
2 | C=C1CC[C@H]2C[C@@H]1C2(C)C | inactive | – | – | – | – | – | – | – | –
3 | CC(C)C[C@H]1C[C@@]2(CC[C@H]3C[C@@H]2C3(C)C)OC2=C1C(=O)C(C)(C)C(=O)C2(C)C | – | 12.4 | inactive | 8.96 | inactive | 2.9 | 32.1 | inactive | Activity (Spodoptera litura [2]): inactive; Activity (Spodoptera litura [3]): 7; Activity (Spodoptera litura [5]): 10; Activity (Spodoptera litura [7]): 9; Activity (Spodoptera litura [8]): 7.3; Activity (HL-60 [10]): Active; growth inhibition (GI) (Spodoptera litura [11]): Active; Activity (HL-60 [13]): Active; Activity (Spodoptera litura [14]): 10; Activity (Spodoptera litura [15]): 8.7; Activity (Spodoptera litura [16]): 9.7
4 | CC(C)C[C@@H]1C[C@@]2(CC[C@H]3C[C@@H]2C3(C)C)OC2=C1C(=O)C(C)(C)C(=O)C2(C)C | – | 8.39 | inactive | 13.6 | inactive | 3.67 | 63.5 | inactive | –
5 | CCC[C@@H]1C[C@@]2(CC[C@H]3C[C@@H]2C3(C)C)OC2=C1C(=O)C(C)(C)C(=O)C2(C)C | – | 21.4 | – | 14.2 | – | 23.5 | 99.2 | – | –
6 | CCC[C@H]1C[C@@]2(CC[C@H]3C[C@@H]2C3(C)C)OC2=C1C(=O)C(C)(C)C(=O)C2(C)C | – | 14.4 | – | 12.6 | – | 19.4 | 30.1 | – | –

Source: ChEMBL document CHEMBL3351587, “Revised stereochemistry of ficifolidione and its biological activities against insects and cells” (J Nat Prod, 2015)
